Results: ChEMBL document CHEMBL1157827, “The synthesis and biological evaluation of quinolyl-piperazinyl piperidines as potent serotonin 5-HT1A antagonists” (J Med Chem, 2010)
Activity calls are given as the source filed them. The calls are words filed in the database; no cut-off is given here.

Tests used:
[1] = target: T1, 5-hydroxytryptamine receptor 1A (Homo sapiens, UniProt P08908); assay: biochemical
T1 sequence (P08908 whole entry): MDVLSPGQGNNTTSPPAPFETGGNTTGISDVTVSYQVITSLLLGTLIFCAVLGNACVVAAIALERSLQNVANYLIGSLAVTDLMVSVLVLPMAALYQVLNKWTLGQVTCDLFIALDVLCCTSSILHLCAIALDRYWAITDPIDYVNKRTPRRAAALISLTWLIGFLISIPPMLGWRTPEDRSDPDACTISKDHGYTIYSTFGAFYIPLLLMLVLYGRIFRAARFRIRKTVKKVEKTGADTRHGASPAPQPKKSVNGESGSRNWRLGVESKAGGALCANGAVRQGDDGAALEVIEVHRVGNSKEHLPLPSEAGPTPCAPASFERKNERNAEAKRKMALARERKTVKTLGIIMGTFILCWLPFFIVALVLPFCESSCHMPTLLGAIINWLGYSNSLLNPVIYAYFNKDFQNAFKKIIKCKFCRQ
Description: (§3) Displacement of [3H]8-OH-DPAT from human 5HT1A receptor expressed in CHO cells

in vitro [2] = details: human, liver microsomes
Description: Half life in human liver microsomes at 1 uM after 20 mins

in vitro [3] = details: rat, liver microsomes
Description: Half life in rat liver microsomes at 1 uM after 20 mins

[4] = target: T1, 5-hydroxytryptamine receptor 1A
Rattus norvegicus [5] = assay: Cognitive enhancing effect in Long-Evans rat assessed as effect on swim speed during acquisition training at 3 to 10 mg/kg, po by atlantis water maze test; assay type: functional, organism-based
Rattus norvegicus [6] = assay: Effect on obsessive compulsive behavior in Sprague-Dawley rat assessed as inhibition of polydipsia stimulated by food intake of a schedule of every 2 minutes for 2 hrs at 10 mg/kg, po after 30 mins; assay type: functional, organism-based; set-up: dose 10 mg/kg
Rattus norvegicus [7] = assay: (§1) AUC in Sprague-Dawley rat at 3 mg/kg, po administered as single dose by LC/MS/MS analysis; assay type: ADME, organism-based, Plasma; set-up: dose 3 mg/kg, route oral; details: in vivo
[8] = Ratio of drug level in brain to plasma in Sprague-Dawley rat at 3 mg/kg, po administered as single dose; assay type: ADME, organism-based; set-up: dose 3 mg/kg, route oral; details: read-out: BPR
Rattus norvegicus [9] = assay: Effect of noncontact penile erection in Sprague-Dawley rat at 10 mg/kg, po; assay type: functional, organism-based; set-up: dose 10 mg/kg
Rattus norvegicus [10] = assay: Enhancement of fluoxetine-induced inhibition of olfactory bulbectomy-mediated hyperlocomotor activity in Sprague-Dawley rat at 10 mg/kg, po coadministered with fluoxetine QD for 7 days measured after 14 days post-surgery; assay type: functional, organism-based; set-up: dose 10 mg/kg
[11] = Tmax in Sprague-Dawley rat at 3 mg/kg, po administered as single dose by LC/MS/MS analysis; assay type: ADME, organism-based; set-up: dose 3 mg/kg, route oral; details: in vivo
Rattus norvegicus [12] = assay: Effect of noncontact penile erection in Sprague-Dawley rat at 10 mg/kg, po QD for 14 days measured after day 14; assay type: functional, organism-based; set-up: dose 10 mg/kg
Rattus norvegicus [13] = assay: Cognitive enhancing effect in Long-Evans rat assessed as increase in dwell time within trigger zone during acquisition training at 10 mg/kg, po by atlantis water maze test; assay type: functional, organism-based; set-up: dose 10 mg/kg
Rattus norvegicus [14] = assay: Cognitive enhancing effect in po dosed Long-Evans rat assessed as minimal effective dose for reversal of MK-801-induced memory deficit administered 30 mins prior to MK801 challenge measured after 1 hr by novel object recognition test; assay type: functional; details: read-out: MED
Rattus norvegicus [15] = assay: Inhibition of fluoxetine-induced decrease in noncontact penile erection in Sprague-Dawley rat at 10 mg/kg, po coadministered with fluoxetine; assay type: functional, organism-based; set-up: dose 10 mg/kg
Rattus norvegicus [16] = assay: Cognitive enhancing effect in po dosed Long-Evans rat assessed as reversal of 48 hrs delay-induced cognitive deficit at 0.1 mg/kg, po measured after 1 hr by novel object recognition test in presence of 0.5 mg/kg acetylcholinesterase inhibitor donepazil; assay type: functional, organism-based
Rattus norvegicus [17] = assay: Effect on obsessive compulsive behavior in po dosed Sprague-Dawley rat assessed as enhancement of fluoxetine-induced inhibition of polydipsia stimulated by food intake of a schedule of every 2 minutes for 2 hrs administered 30 mins before fluoxetine challenge measured after 30 mins; assay type: functional, organism-based
[18] = target: T1, 5-hydroxytryptamine receptor 1A; details: cho
Description: as §3

Rattus norvegicus [19] = assay: Cognitive enhancing effect in Long-Evans rat assessed as decrease in mean escape latency at 3 to 10 mg/kg, po by atlantis water maze test; assay type: functional, organism-based
Rattus norvegicus [20] = assay: Antidepressant activity in Sprague-Dawley rat assessed as inhibition of olfactory bulbectomy-induced hyperlocomotor activity at 5.6 mg/kg, ip QD fro 7 days measured after 14 days post-surgery; assay type: functional, organism-based; set-up: dose 5.6 mg/kg
[21] = Cmax in Sprague-Dawley rat at 3 mg/kg, po administered as single dose by LC/MS/MS analysis; assay type: ADME, organism-based; set-up: dose 3 mg/kg, route oral; details: in vivo
Rattus norvegicus [22] = assay: Cognitive enhancing effect in po dosed Long-Evans rat assessed as minimal effective dose for reversal of scopolamine-induced memory deficit administered 30 mins prior to MK801 challenge measured after 1 hr by novel object recognition test; assay type: functional; details: read-out: MED
Rattus norvegicus [23] = assay: Cognitive enhancing effect in po dosed Long-Evans rat assessed as minimal effective dose for reversal of 48 hrs delay-induced cognitive deficit measured after 1 hr by novel object recognition test; assay type: functional; details: read-out: MED
Rattus norvegicus [24] = assay: In vivo receptor occupancy of 5HT1A receptor Long-Evans rat […] hippocampus at 0.1 to 10 mg/kg, po by [3H]WAY100635 displacement assay; assay type: functional; details: dose mg/kg 0.1-10
Rattus norvegicus [25] = assay: Increase in fluoxetine-induced increase in serotonin level in Sprague-Dawley rat frontal cortex at 10 mg/kg, po administered 30 mins before fluoxetine challenge measured after 20 mins by microdialysis assay relative to basal level; assay type: functional
[26] = Volume of distribution at steady state in Sprague-Dawley rat at 1 mg/kg, iv administered as single dose by LC/MS/MS analysis; assay type: ADME, organism-based; set-up: dose 1 mg/kg, route intravenous; details: in vivo, read-out: Vdss
Rattus norvegicus [27] = assay: Enhancement of fluoxetine-induced inhibition of polydipsia stimulated by food intake of a schedule of every 2 minutes for 2 hrs in Sprague-Dawley rat assessed as minimal effective dose administered 30 mins before fluoxetine challenge measured after 30 mins; assay type: functional; details: read-out: MED
Rattus norvegicus [28] = assay: In vivo receptor occupancy of 5HT1A receptor Long-Evans rat frontal cortex at 0.1 to 10 mg/kg, po by [3H]WAY100635 displacement assay; assay type: functional; details: dose mg/kg 0.1-10
Rattus norvegicus [29] = assay: Induction of sexual dysfunction in Sprague-Dawley rat assessed as decrease in noncontact penile erection at 10 mg/kg, ip QD for 14 days measured after day 14; assay type: organism-based; set-up: dose 10 mg/kg, route intraperitoneal; scale not given: the % may be the effect or the level left; details: in vivo, 336 h
Rattus norvegicus [30] = assay: Inhibition of fluoxetine-induced decrease in noncontact penile erection in Sprague-Dawley rat at 10 mg/kg, po coadministered with fluoxetine QD for 14 days measured after day 14; assay type: functional, organism-based; set-up: dose 10 mg/kg
Rattus norvegicus [31] = assay: Increase in acetylcholine level in Sprague-Dawley rat dorsal hippocampus at 10 mg/kg, po after 40 to 200 mins microdialysis assay; assay type: functional, organism-based; set-up: dose 10 mg/kg
Rattus norvegicus [32] = assay: Effect on serotonin release in Sprague-Dawley rat cortex at 10 mg/kg, po after 40 mins microdialysis assay; assay type: functional, organism-based; set-up: dose 10 mg/kg
[33] = Half life in Sprague-Dawley rat at 3 mg/kg, po administered as single dose by LC/MS/MS analysis; assay type: ADME, organism-based; set-up: dose 3 mg/kg, route oral; details: in vivo
Rattus norvegicus [34] = assay: Inhibition of 8-OH-DPAT-induced decrease in extracellular serotonin level Sprague-Dawley rat cortex at 10 mg/kg, po administered 30 mins before 8-OH-DPAT challenge; assay type: functional, organism-based; set-up: dose 10 mg/kg
Rattus norvegicus [35] = assay: (§2) Oral bioavailability in Sprague-Dawley rat at 3 mg/kg administered as single dose by LC/MS/MS analysis; assay type: ADME, organism-based; details: in vivo
Rattus norvegicus [36] = assay: Cognitive enhancing effect in Long-Evans rat assessed as increase in dwell time within trigger zone during acquisition training at 3 mg/kg, po by atlantis water maze test; assay type: functional, organism-based; set-up: dose 3 mg/kg
Mus musculus = assay: Cognitive enhancing effect in po dosed transgenic 2576 mouse overexpressing human APP K670N/M671L double mutant assessed as minimal effective dose for enhancement of contextual memory measured after 1 hr by contextual fear conditioning assay; assay type: functional; details: read-out: MED
Rattus norvegicus [37] = assay: Effect on obsessive compulsive behavior in Sprague-Dawley rat assessed as inhibition of polydipsia stimulated by food intake of a schedule of every 2 minutes for 2 hrs at 5.6 mg/kg, ip after 30 mins; assay type: functional, organism-based; set-up: dose 5.6 mg/kg
[38] = as §1; assay type: ADME, organism-based, Plasma; set-up: dose 3 mg/kg, route oral; details: Sprague-Dawley, plasma
[39] = as §2; assay type: ADME, organism-based; details: Sprague-Dawley, in vivo
[40] = Clearance in Sprague-Dawley rat at 1 mg/kg, iv administered as single dose by LC/MS/MS analysis; assay type: ADME, organism-based; set-up: dose 1 mg/kg, route intravenous; details: in vivo

In the case of `COc1cc(N2CCN(C3CCN(c4cc(F)cc5cccnc45)CC3)CC2)c2ncccc2c1`, the Ki [1] is reported as 3.4 nM, the half-life at 20 min, 1 µM (in vitro [2]) is reported as 4 min and the half-life at 20 min, 1 µM (in vitro [3]) is reported as 2 min. It also gave an IC50 [4] of 46.5 nM.
With `COc1cc(N2CCN(C3CCN(c4ccc(F)c5cccnc45)CC3)CC2)c2ncccc2c1` the Activity (Rattus norvegicus [5]) was “inactive”, the Activity (Rattus norvegicus [6]) was “inactive” and the AUC (Rattus norvegicus [7]) was 472 ng·h/mL. For the same molecule, the Kp [8] was 1.3, the Activity (Rattus norvegicus [9]) was “inactive” and the Activity (Rattus norvegicus [10]) was “Active”. The Tmax [11] was 48 min, the Activity (Rattus norvegicus [12]) was “inactive” and the Activity (Rattus norvegicus [13]) was “Active”. The minimal effective dose (Rattus norvegicus [14]) was 1 mg/kg, the Activity (Rattus norvegicus [15]) was “Active” and the Activity (Rattus norvegicus [16]) was “Active”. The Activity (Rattus norvegicus [17]) was “Dose-dependent effect”, the Ki [18] was 0.4 nM and the Activity (Rattus norvegicus [19]) was “Active”. For the same molecule, the half-life at 20 min, 1 µM (in vitro [2]) was 6 min, the Activity (Rattus norvegicus [20]) was “inactive” and the Cmax [21] was 247 ng/mL. The minimal effective dose (Rattus norvegicus [22]) was 0.3 mg/kg, the minimal effective dose (Rattus norvegicus [23]) was 0.3 mg/kg and the Activity (Rattus norvegicus [24]) was 20%. For the same molecule, the half-life at 20 min, 1 µM (in vitro [3]) was 2 min, the Activity (Rattus norvegicus [25]) was 120% and the Vd [26] was 2.6 L/kg. It also gave a minimal effective dose (Rattus norvegicus [27]) of 3 mg/kg, an Activity (Rattus norvegicus [28]) of 20% and an Activity (Rattus norvegicus [29]) of 54%. The Activity (Rattus norvegicus [30]) was “Active”, the Activity (Rattus norvegicus [31]) was “Active” and the Activity (Rattus norvegicus [32]) was “inactive”. The half-life [33] was 66 min, the IC50 [4] was 2.7 nM and the Activity (Rattus norvegicus [34]) was “Active”. The F (Rattus norvegicus [35]) was 33%, the Activity (Rattus norvegicus [36]) was “inactive” and the minimal effective dose (Mus musculus) was 0.3 mg/kg. The Activity (Rattus norvegicus [37]) was “inactive”.
`COc1cc(N2CCN(C3CCN(c4cccc5c(C)cc(C)nc45)CC3)CC2)c2ncccc2c1` showed a Ki [1] of 0.63 nM, a half-life at 20 min, 1 µM (in vitro [2]) of under 1 min and a half-life at 20 min, 1 µM (in vitro [3]) of 4 min. It also gave an IC50 [4] of 4.8 nM.
`COc1cc(N2CCN(C3CCN(c4ccc(F)c5cc(C(F)(F)F)cnc45)CC3)CC2)c2ncccc2c1` showed a Ki [1] of 0.87 nM, a half-life at 20 min, 1 µM (in vitro [2]) of 27 min and a half-life at 20 min, 1 µM (in vitro [3]) of 9 min. It also gave an IC50 [4] of 15 nM.
For `COc1cc(N2CCN(C3CCN(c4ccc(F)c5ccc(C(F)(F)F)nc45)CC3)CC2)c2ncccc2c1`, the Ki [1] was 3.6 nM, the half-life at 20 min, 1 µM (in vitro [2]) was 3 min and the half-life at 20 min, 1 µM (in vitro [3]) was 3 min. For the same molecule, the IC50 [4] was 7 nM.
`COc1cc(N2CCN(C3CCN(c4cccc5cc(F)cnc45)CC3)CC2)c2ncccc2c1` gave a Ki [1] of 0.79 nM, a half-life at 20 min, 1 µM (in vitro [2]) of 2 min and a half-life at 20 min, 1 µM (in vitro [3]) of 2 min. The IC50 [4] was 5.6 nM.
Work on `COc1cc(N2CCN(C3CCN(c4ccc(F)c5cc(F)cnc45)CC3)CC2)c2ncccc2c1` yielded a Ki [1] of 0.47 nM, a half-life at 20 min, 1 µM (in vitro [2]) of 5 min and a half-life at 20 min, 1 µM (in vitro [3]) of under 1 min. It also gave an IC50 [4] of 20 nM.
Molecule `COc1cc(N2CCN(C3CCN(c4c(F)ccc5cccnc45)CC3)CC2)c2ncccc2c1` has a Ki [1] of 276 nM, a half-life at 20 min, 1 µM (in vitro [2]) of 3 min and a half-life at 20 min, 1 µM (in vitro [3]) of 3 min. The IC50 [4] was 331 nM.
`COc1cc(N2CCN(C3CCN(c4ccc(F)c5c(OC)cc(C(F)(F)F)nc45)CC3)CC2)c2ncccc2c1` showed an AUC [38] of 3760 ng·h/mL, a Kp [8] of 0.2 and a Tmax [11] of 120 min. It also gave a half-life at 20 min, 1 µM (in vitro [2]) of 15 min, a Cmax [21] of 417 ng/mL and a half-life at 20 min, 1 µM (in vitro [3]) of 12 min. For the same molecule, the Vd [26] was 2.5 L/kg, the Activity (Rattus norvegicus [32]) was “inactive” and the half-life [33] was 288 min. The Activity (Rattus norvegicus [34]) was “Active”, the bioavailability [39] was 60% and the clearance [40] was 9 mL/min/kg.
